Patent US20180133203A1, “METHODS OF TREATING LIVER DISEASE” (Gilead Sciences, Inc., priority 2016, published 2018)

Assays:
FFD mice = assay: Total liver cholesterol content in FFD mouse model of NASH; format: in vivo, male C57BL/6 mice; settings: Formula (I) 0.15% admixture in diet, Formula (III) 10 mg/kg PO QD, months 7-10
Experimental: The following study was conducted to evaluate the efficacy of the combination of an ASK1 inhibitor and an FXR agonist in a mouse model of non-alcoholic steatohepatitis (NASH), relative to the efficacy of the individual agents alone in the model. NASH was induced in male C57BL/6 mice by chronic administration of a “fast food” diet (FFD) high in saturated fats, cholesterol and sugars for a total of 10 months, whereas lean control animals were maintained on a normal chow diet. A NASH phenotype was established in FFD mice compared to control mice by 7 months, and was characterized by obesity, hypercholesterolemia, and AST/ALT elevation; and by histological features of NASH such as hepatocellular macrovesicular steatosis and ballooning degeneration. […] Endpoint analyses included morphometric quantification of liver steatosis (% of steatotic area), liver cholesterol content, serum ALT/AST levels, serum bile acid levels, and nanostring evaluation of gene expression. […] After centrifugation, an aliquot of the organic upper layer, containing cholesterol and cholesterol esters, was analyzed. […] The peak area of the m/z 369 [M-H2O]+→161+ product ion of cholesterol was measured against the peak area of the cholesterol-D6 product ion of m/z 375 [M-H2O]+→167+. […]

CDHFD/NaNO2 rats = assay: Liver hydroxyproline content in CDHFD/NaNO2 rat model of NASH; format: in vivo, male Wistar rats; settings: vs vehicle-treated CDHFD/NaNO2 rats; Formula (I) 0.2% in diet, Formula (III) 30 mg/kg/day, week 4 to 14
Experimental: The following study was conducted to evaluate the efficacy of the combination of an ASK1 inhibitor and an FXR agonist in a rodent model of non-alcoholic steatohepatitis (NASH), relative to the efficacy of the individual agents alone in the model. NASH was induced in male Wistar rats by administration of a choline-deficient high fat diet (CDHFD) combined with the chronic administration of sodium nitrite (CDHFD/NaNO2). The model capitalizes on the “two hit theory” of NASH by inducing both metabolic dysfunction (CDHFD) and oxidative stress (NaNO2) in the liver to result in hepatic fibrosis that is similar in character and severity to that seen in patients with advanced NASH. Rats were fed CDHFD for a total of 14 weeks and were administered NaNO2 from week 4 to 14. […] The following endpoints were assessed at the completion of the 14 week study: i) liver fibrosis measured by liver hydroxyproline (OHP) content and by quantitative morphometric analysis of collagen content by Picosirius red (PSR) staining; ii) myofibroblast activation in liver sections as measured by quantitative IHC of the myofibroblast marker desmin; and, iii) Col1a1 and Timp1 in liver tissue measured by RT-PCR. […] All endpoints were assessed at the completion of the 14 week study protocol. […] The hydroxyproline content was determined photometrically by measuring the absorbance at 560 nm. […]

O=C(O)c1ccnc(N2CC(O)(c3ccc(OCc4c(-c5c(Cl)cccc5Cl)noc4C4CC4)cc3Cl)C2)c1 [Formula (III)]
reduction of liver cholesterol content (FFD mice): 36% | reduction of liver hydroxyproline content (CDHFD/NaNO2 rats): did not significantly reduce

O=C(Nc1cccc(-c2nncn2C2CC2)c1)c1cc(-n2cnc(C3CC3)c2)ccn1 [Formula (I)]
reduction of liver cholesterol content (FFD mice): 74% | reduction of liver hydroxyproline content (CDHFD/NaNO2 rats): did not significantly reduce
